The text below walks through data of patent US11903983B2, “Composition comprising new Lactobacillus salivarius strains and method for the prevention and treatment of otitis and upper respiratory infections” (priority 2018, dated 2024).

In brackets after ≈: the same amount, converted by molar mass.

The test system of the first assay is L. salivarius PS7. Briefly: Antibiogram: MIC by VetMIC microdilution and E-test. In kind it is cell-based, Lactobacillus salivarius.
Details: not given
As to the method:
The suspension was further adjusted to 3×10^5 CFU/ml with LSM, and 100 μl were inoculated to wells of microtiter VetMIC plates for lactic acid bacteria (National Veterinary Institute of Sweden, Uppsala, Sweden). The plates were incubated at 37° C. for 48 h and the MIC was defined as the lowest concentration at which no growth was observed.
Parallel, minimum inhibitory concentrations (MICs) were also determined by the E-test (AB BIODISK, Solna, Sweden) following the instructions of the manufacturer. Briefly, after overnight incubation, agar cultures were checked for purity. For inoculums preparation, individual colonies were suspended in a sterile glass culture tube containing 5 ml sterile saline (0.85% NaCl solution) until a density corresponding to a McFarland (McF) standard of 0.5 was obtained. A sterile cotton swab was dipped into the standardized inoculum and used to inoculate an agar plate. Inoculated plates were allowed to dry for approximately 15 min before application of the E-test strips with preformed antimicrobial gradients. […] For bacteriostatic agents (e.g., tetracycline, erythromycin and clindamycin), the MIC was read at the point where growth was inhibited by 80% (i.e., the first point of significant inhibition as judged by the naked eye).
Results from the different antibiotic susceptibility tests were interpreted according to the cut-off levels proposed by the European Food Safety Authority (EFSA, 2012).
On to `CN[C@H](CC(C)C)C(=O)N[C@H]1C(=O)N[C@@H](CC(N)=O)C(=O)N[C@H]2C(=O)N[C@H]3C(=O)N[C@H](C(=O)N[C@H](C(=O)O)c4cc(O)cc(O)c4-c4cc3ccc4O)[C@H](O)c3ccc(c(Cl)c3)Oc3cc2cc(c3O[C@@H]2O[C@H](CO)[C@@H](O)[C@H](O)[C@H]2O[C@H]2C[C@](C)(N)[C@H](O)[C@H](C)O2)Oc2ccc(cc2Cl)[C@H]1O` [Vancomycin], for which the “antibiotic susceptibility of L. salivarius PS7 according to EFSA cut-off levels” value is reported as “intrinsically resistant”.

The same assay, now with this note: Ligilactobacillus salivarius, PS7, read-out: MICs (L. salivarius PS7).
`CC(=O)NC[C@H]1CN(c2ccc(N3CCOCC3)c(F)c2)C(=O)O1` [Linezolid]: the MIC turned out to be 1 µg/mL (≈ 2.96 µM).
In the case of `[H]/N=C(/N)N[C@H]1[C@H](O)[C@@H](O)[C@H](O[C@@H]2O[C@@H](C)[C@](O)(C=O)[C@H]2O[C@@H]2O[C@@H](CO)[C@H](O)[C@@H](O)[C@@H]2NC)[C@@H](N/C(N)=N\[H])[C@@H]1O` [Streptomycin], the MIC is 32 µg/mL (≈ 55 µM).
In the case of `CC1(C)S[C@@H]2[C@H](NC(=O)[C@H](N)c3ccccc3)C(=O)N2[C@H]1C(=O)O` [Ampicillin], the MIC is 0.5 µg/mL (≈ 1.43 µM).
Consider `CC[C@H]1OC(=O)[C@H](C)[C@@H](O[C@H]2C[C@@](C)(OC)[C@@H](O)[C@H](C)O2)[C@H](C)[C@@H](O[C@@H]2O[C@H](C)C[C@H](N(C)C)[C@H]2O)[C@](C)(O)C[C@@H](C)C(=O)[C@H](C)[C@@H](O)[C@]1(C)O` [Erythromycin], for which the MIC was found to be 0.12 µg/mL (≈ 0.164 µM).
As for `CN[C@H](CC(C)C)C(=O)N[C@H]1C(=O)N[C@@H](CC(N)=O)C(=O)N[C@H]2C(=O)N[C@H]3C(=O)N[C@H](C(=O)N[C@H](C(=O)O)c4cc(O)cc(O)c4-c4cc3ccc4O)[C@H](O)c3ccc(c(Cl)c3)Oc3cc2cc(c3O[C@@H]2O[C@H](CO)[C@@H](O)[C@H](O)[C@H]2O[C@H]2C[C@](C)(N)[C@H](O)[C@H](C)O2)Oc2ccc(cc2Cl)[C@H]1O` [Vancomycin], the MIC was above 128 µg/mL.
`CCC[C@@H]1C[C@@H](C(=O)N[C@@H]([C@H]2O[C@H](SC)[C@H](O)[C@@H](O)[C@H]2O)[C@H](C)Cl)N(C)C1` [Clindamycin]: the MIC amounted to 0.5 µg/mL (≈ 1.18 µM).
On to `O=C(N[C@H](CO)[C@H](O)c1ccc([N+](=O)[O-])cc1)C(Cl)Cl` [Chloramphenicol], for which the MIC is 2 µg/mL (≈ 6.19 µM).
Take `NC[C@H]1O[C@H](O[C@H]2[C@H](O)[C@@H](O[C@H]3O[C@H](CO)[C@@H](O)[C@H](N)[C@H]3O)[C@H](N)C[C@@H]2N)[C@H](O)[C@@H](O)[C@@H]1O` [Kanamycin]: the MIC was determined as 128 µg/mL (≈ 264 µM).

The same assay, now with this note: antibiotic against L. salivarius PS7.
Consider Penicillin, for which the “MICs (L. salivarius PS7)” value was determined as 0.25 µg/mL.
On the same count and under the same terms, the result for `CN(C)[C@@H]1C(=O)C(C(N)=O)=C(O)[C@@]2(O)C(=O)C3=C(O)c4c(O)cccc4[C@@](C)(O)[C@H]3C[C@@H]12` [Tetracyclin] reads 2 µg/mL; that for Gentamicin, 0.12 µg/mL.
